According to article PMC8564487, “MHC-Optimized Peptide Scaffold for Improved Antigen Presentation and Anti-Tumor Response” (Frontiers in Immunology, 2021):

Key:
Assay type in all cases: in vivo, C57BL/6 mice
splenocytes = assay: IFN-γ EliSpot cross-reactivity between wt and htcPep after immunization; details: mice immunized with NAL peptide, splenocytes re-stimulated with the labelled peptide
Method: C57BL/6 mice were immunized with the different htcPep. In particular, each group of animals (6 for each group) were injected by sub-cutaneous (s.c.) route with 100 µg of WT, INC (mix of selected htcPep), NAL or MIX peptides (peptide library) respectively, emulsified with 50 μg of Polyinosinic:polycytidylic acid [poly(I:C); InvivoGen] adjuvant formulated in PBS (200ul total volume). Each group received weekly the peptide vaccine in combination with metronomic chemotherapy (MCT) and ICI. One group was treated only with MCT and ICI (MCT + ICI group). Control mice were treated with endotoxin-free phosphate-buffered saline (PBS). Splenocytes were re-stimulated ex-vivo O/N with the different peptides in an IFN-γ EliSpot assay.
ELISPOT was performed according to BD Biosciences manufacturer instructions (BD ELISPOT Mouse IFN-γ ELISPOT Set cod. 551083). 5x10^5 splenocytes or 2 x10^5 tumor infiltrated lymphocytes (TIL) were counted and plated in each well. […]
Both splenocytes and TILs were stimulated with 10ug/ml of single or peptide pool used for the immunization and incubated for 24-26h. […] The plates were read with an AID EliSpot Reader Systems (AID GmbH, Strassberg, Germany). The results were calculated as spot forming counts as a mean of a duplicate count from the specific antigen stimulation minus the negative control.

B16F10 tumors [1] = assay: IHC of tumor-infiltrating lymphocytes in B16F10 tumors; details: B16F10 tumors at sacrifice, Trp2 groups, Central Tumor
Text: Formalin-Fixed Paraffin-Embedded (FFPE) sections were stained with CD3+, FoxP3 and Granzime B antibodies manually. Visualization of the antibody–antigen reaction was visualized by anti-alkaline phosphatase methods using Vulcan fast red (Biocare Medical FR805S) as the chromogenic substrate. Finally, sections were weakly counterstained with hematoxylin and mounted.
Lymphocyte densities (cells/mm2) were quantified in the tumor (CT) and invasive margin (IM) by digital pathology. The slides were scanned with Aperio AT2 (Leica) and the areas (CT, IM) were selected by an experienced pathologist (MDB). Finally, the acquired images were quantified using QuPath 0.2.3.
To evaluate the balance between cytotoxic and immune suppressive activity of B16 tumor model a formula considering the numerical difference between the GrzB+ cells (cytotoxic cells) and the FOXP3+ cells (immunosuppressive cells), on total CD3+ cells, was applied. The formula is schematized as:
Ratio=(# of GRZB−# of FOXP3)/# of CD3.

B16F10 tumors [2] = assay: Tumor necrosis rate (H&E) in B16F10 tumors; details: H&E staining
Method: Finally, tumor necrosis rates were evaluated for each tumor lesion. The slides were stained with hematoxylin and eosin and then subjected to reading and determination of areas of necrosis. For percentage of necrosis through the tumor mass, was used the following formula: …
%necrosis area: (necrosis area/total tumoral mass area)∗100

Substance: Y4W: heteroclitic E7 peptide with Tryptophan substitution at position 4 (RAHWNIVTF; UniProt P03129 49-57, looked up, variant Y52W)
- T cell cross-reactivity of NAL-immunized animals with challenging htcPep (splenocytes; HPV-E7 series): strongest T cells cross-reactivity

Substance: D4W: heteroclitic Trp2 peptide with Tryptophan substitution at position 4 (SVYWFFVWL; UniProt P29812 180-188, looked up, variant D183W)
- T cell cross-reactivity of NAL-immunized animals with challenging htcPep (splenocytes; Trp2 series): strongest T cells cross-reactivity

Substance: Trp2 wt: wild type Trp2 H-2Db epitope expressed by B16F10 melanoma cells (SVYDFFVWL; Trp2 H-2Db epitope; UniProt P29812 180-188, looked up, fragment)
- Average number of FOXP3+ T cells, CT area (B16F10 tumors [1]): 2.8
- % of necrosis (necrosis area/total tumoral mass area) (B16F10 tumors [2]): 10%
